Assay [1] has as its target T1, androgen receptor (Homo sapiens, UniProt P10275, Q868H).
T1 construct: a human breast tumor cell line expressing androgen receptor; endogenous in cells; host or cells: MDA-MB453-MMTV clone 54-19 (only the MMTV-luciferase reporter was transfected)
T1 sequence (P10275 1-920 Q868H): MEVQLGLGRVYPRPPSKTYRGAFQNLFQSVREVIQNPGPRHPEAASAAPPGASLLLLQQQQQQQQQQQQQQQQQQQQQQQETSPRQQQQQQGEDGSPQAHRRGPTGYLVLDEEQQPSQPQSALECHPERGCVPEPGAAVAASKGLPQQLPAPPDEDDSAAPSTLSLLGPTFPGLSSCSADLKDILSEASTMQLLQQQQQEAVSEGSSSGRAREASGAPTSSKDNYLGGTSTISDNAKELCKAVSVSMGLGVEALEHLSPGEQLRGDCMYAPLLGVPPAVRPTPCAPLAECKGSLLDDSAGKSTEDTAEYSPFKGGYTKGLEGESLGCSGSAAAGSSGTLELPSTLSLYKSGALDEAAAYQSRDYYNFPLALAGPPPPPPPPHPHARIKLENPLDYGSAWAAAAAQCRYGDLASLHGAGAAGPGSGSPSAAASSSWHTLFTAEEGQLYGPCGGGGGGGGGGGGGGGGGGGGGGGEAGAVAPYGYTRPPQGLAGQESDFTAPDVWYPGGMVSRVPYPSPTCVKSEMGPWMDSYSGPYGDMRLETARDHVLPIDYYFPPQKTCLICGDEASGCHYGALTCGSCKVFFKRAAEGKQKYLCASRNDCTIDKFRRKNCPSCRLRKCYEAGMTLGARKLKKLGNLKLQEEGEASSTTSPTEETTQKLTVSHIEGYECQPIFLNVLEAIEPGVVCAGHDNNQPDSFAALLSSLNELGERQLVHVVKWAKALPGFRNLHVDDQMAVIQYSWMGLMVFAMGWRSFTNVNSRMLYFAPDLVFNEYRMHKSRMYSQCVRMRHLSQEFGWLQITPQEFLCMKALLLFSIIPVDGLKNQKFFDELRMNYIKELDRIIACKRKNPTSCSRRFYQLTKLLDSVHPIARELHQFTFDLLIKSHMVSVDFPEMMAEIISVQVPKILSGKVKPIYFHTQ
As to the kind of experiment: AR antagonist cell assay (MDA-MB453-MMTV clone 54-19, luciferase reporter). The format is cell-based. The note with it: 100 pM DHT, 17 hr, mean of multiple tests. On the procedure: The compounds ability to antagonize the effects of androgen on the androgen receptor were determined in a whole cell assay as described immediately below.
Experimental Procedure for AR Antagonist Cell Assay
This cell line is a stable transfected cell line with MDA-MB453 cell background (a human breast tumor cell line expressing androgen receptor). A MMTV minimal promoter containing ARE was first cloned in front of a firefly luciferase reporter gene. Then the cascade was cloned into transfection vector pUV120puro. Electroporation method was used for transfecting MDA-MB-453 cell. Puromycin resistant stable cell line was selected.
Cell Culture Media and Reagents:
Culture medium: DMEM (high glucose, Gibco cat #: 11960-044), 10% FBS, and 1% L-glutamine
Plating medium: DMEM (phenol red free), 10% charcoal treated HyClone serum, 1% L-glutamine
Assay medium: DMEM (phenol red free), 1% charcoal treated HyClone serum, 1% L-glutamine, and 1% penicillin/streptomycin
3× luciferase buffer: 2% beta-mercaptoethanol, 0.6% ATP, 0.0135% luciferine in cell lysis buffer
• 1. Cells are maintained in culture medium, splitting cells when they reach 80-90% confluence • 2. To test compounds, 10,000 cells/well are plated to opaque 96 cell culture plate in 100 ul/well plating medium, culture for overnight at 37° C. in cell culture incubator • 3. Carefully remove plating medium, then add 80 ul/well of pre-warmed assay medium, add 10 ul/well testing compound (final concentration at) 1000 nM, 200 nM, 40 nM, 8 nM, 1.6 nM, and 0.32 nM), incubate at 37° C. for 30 minutes • 4. Add 10 ul/well freshly prepared DHT (final concentration at 100 pM) to each well, incubate at 37° C. for 17 hr (overnight) • 5.
The results are reported as the mean of multiple tests as described below (the numbers of tests are indicated in the footnote). N.D. denotes that the compound was not tested.

The target of assay [2] is T2, hAR (Homo sapiens, UniProt P10275).
T2 construct: made in house; host or cells: baculovirus/Sf9 insect cells
T2 sequence (P10275 1-920): T1 sequence (P10275 1-920 Q868H) with H868Q
The experiment in a line: Competitive binding analysis on baculovirus/Sf9 generated hAR extracts with 3H-DHT tracer. Conditions: 1 nM 3H-DHT, one hour at 4° C., mean of multiple tests. The procedure: The description below describes how the assay was carried out.
Competitive binding analysis was performed on baculovirus/Sf9 generated hAR extracts in the presence or absence of different concentrations of test agent and a fixed concentration of ^3H-dihydrotestosterone (^3H-DHT) as tracer. This binding assay method is a modification of a protocol previously described (Liao S., et. al. J. Steroid Biochem. 20:11-17 1984). Briefly, progressively decreasing concentrations of compounds are incubated in the presence of hAR extract (Chang et al. P.N.A.S. Vol. 89, pp. […], 1992), hydroxylapatite, and 1 nM ^3H-DHT for one hour at 4° C. Subsequently, the binding reactions are washed three times to completely remove excess unbound ^3H-DHT. hAR bound ^3H-DHT levels are determined in the presence of compounds (i.e. competitive binding) and compared to levels bound when no competitor is present (i.e. maximum binding). Compound binding affinity to the hAR is expressed as the concentration of compound at which one half of the maximum binding is inhibited.

For assay [3] the following is noted: after 7 years of treatment; cited from earlier work.
The mark [4] stands for this setting: MDA-MB453-MMTV clone 54-19 cells, read-out: AR Cell IC50.
Setting [5] is: AR Cell IC50, MDA-MB453-MMTV clone 54-19 cells.
Setting [6] is: hAR extract, read-out: AR Binding IC50.

Substitutions are numbered along the chain they refer to. Like-named read-outs stand apart in the source and are kept apart here.

Data on 18 compounds can be found in US7670613B2, “Androgen modulators” (Pfizer Inc., priority 2004, dated 2010).

The term IC50 denotes the point on the concentration scale where inhibition reaches its midpoint.

Turning to `CCC1CCCCC1Oc1ccc(C#N)c(Cl)c1` (centres unmarked) [Example 27, 2-Chloro-4-(2-ethyl-cyclohexyloxy)-benzonitrile], the IC50 came to 330 nM in assay [1] (setting [4]) and 30 nM in assay [2] (AR Binding IC50, hAR extract).
In the case of `C[C@H]1CC[C@@H](Oc2ccc(C#N)c(Cl)c2)CC1` [Example 31, 2-Chloro-4-(4-cis-methyl-cyclohexyloxy)-benzonitrile], the IC50 in assay [1] (setting [5]) is 66 nM; in assay [2] (setting [6]), 212 nM.
Consider `C[C@@H]1CCCC[C@@H]1Oc1ccc(C#N)c(Cl)c1` [Example 40, (1S,2R)-2-Chloro-4-(2-methyl-cyclohexyloxy)-benzonitrile], for which the IC50 in assay [1] (setting [4]) was 114 nM; in assay [2] (AR Binding IC50, hAR extract), 31 nM.
The corresponding values for `C[C@H]1CCCC[C@@H]1Oc1ccc(C#N)c(Cl)c1` [Example 41, (1S,2S)-2-Chloro-4-(2-methyl-cyclohexyloxy)-benzonitrile] are 46 nM and 18 nM.
Turning to `N#Cc1ccc(OC2CCCCCC2)c(Cl)c1` [Example 43, 3-Chloro-4-cycloheptyloxy-benzonitrile], the results for the IC50 in assay [1] (setting [4]) and in assay [2] (setting [6]) were 12 nM and 289 nM, respectively.
With `N#Cc1ccc(OC2CCCCC2)cc1Cl` [Example 45, 2-Chloro-4-cyclohexyloxy-benzonitrile], the IC50 in assay [1] (setting [4]) is 147 nM; in assay [2] (setting [6]), 196 nM.
As for `N#Cc1ccc(OC2CCCC2)cc1Cl` [Example 46, 2-Chloro-4-cyclopentyloxy-benzonitrile], the IC50 amounted to 18 nM in assay [1] (setting [4]) and 49 nM in assay [2] (AR Binding IC50, hAR extract).
For `CC(C)[C@H]1CC[C@H](C)C[C@@H]1Oc1ccc(C#N)c(Cl)c1` [Example 47, (1S,2R,5S)-2-Chloro-4-(2-isopropyl-5methyl-cyclohexyloxy)-benzonitrile], the IC50 in assay [1] (setting [4]) is 750 nM; in assay [2] (setting [6]), 107 nM.
Consider `C=C(C)[C@H]1CC[C@H](C)[C@@H](Oc2ccc(C#N)c(Cl)c2)C1` [Example 49, (1S,2S,5S)-2-Chloro-4-(5-isopropenyl-2-methyl-cyclohexyloxy)-benzonitrile], for which the IC50 in assay [1] (setting [4]) is 49 nM; in assay [2] (AR Binding IC50, hAR extract), 10 nM.
`N#Cc1ccc(O[C@@H]2CCCC[C@H]2C#N)cc1Cl` [Example 50, (1R,2S)-2-Chloro-4-(2-cyano-cyclohexyloxy)-benzonitrile]: the IC50 turned out to be 202 nM in assay [1] (setting [4]) and 17 nM in assay [2] (AR Binding IC50, hAR extract).
Consider `CC1CCCC(Oc2ccc(C#N)c(Cl)c2)C1C` (centres unmarked) [Example 52, 2-Chloro-4-(2,3-dimethyl-cyclohexyloxy)-benzonitrile], for which the IC50 is 308 nM in assay [1] (setting [4]) and 72 nM in assay [2] (AR Binding IC50, hAR extract).
The corresponding values for `CC1CCCC(C)C1Oc1ccc(C#N)c(Cl)c1` (centres unmarked) [Example 53, 2-Chloro-4-(2,6-dimethyl-cyclohexyloxy)-benzonitrile] are above 1000 nM and 33 nM.
As to `N#Cc1ccc(O[C@H]2CCCC[C@@H]2c2ccccc2)cc1Cl` [Example 55, (1S,2R)-2-Chloro-4-(2-phenyl-cyclohexyloxy)-benzonitrile], the IC50 in assay [1] (setting [4]) stood at 421 nM; in assay [2] (AR Binding IC50, hAR extract), 265 nM.
As to `N#Cc1ccc(OC2CC3CCC2C3)cc1Cl` (centres unmarked) [Example 62, 4-(Bicyclo[2.2.1]hept-2-yloxy)-2-chloro-benzonitrile], the IC50 is below 0.32 nM in assay [1] (setting [4]) and 46 nM in assay [2] (AR Binding IC50, hAR extract).
Consider `C[C@H]1CCC[C@@H]1Oc1ccc(C#N)c(Cl)c1` [Example 67, (1S,2S)-2-Chloro-4-(2-methyl-cyclopentyloxy)-benzonitrile], for which the IC50 in assay [1] (setting [4]) was below 0.32 nM; in assay [2] (AR Binding IC50, hAR extract), 44 nM.
On to `N#Cc1ccc(OC2CCC2)cc1Cl` [Example 68, 2-Chloro-4-cyclobutyloxy-benzonitrile], for which the results for the IC50 in assay [1] (setting [4]) and in assay [2] (setting [6]) were 103 nM and 297 nM, respectively.
With `C=CCO[C@H]1CCCC[C@@H]1Oc1ccc(C#N)c(C(F)(F)F)c1` [Example 71, (1S,2S)-4-(2-Allyloxy-cyclohexyloxy)-2-trifluoromethyl-benzonitrile], the IC50 in assay [1] (setting [5]) was 23 nM; in assay [2] (setting [6]), 374 nM.
`NCCCC(O)(P(=O)(O)O)P(=O)(O)O` [alendronate]: the “Increase in spinal BMD” value in assay [3] was at most 11%.
